Patent US20260176319A1, “PEPTIDE ANALOGS AND METHODS OF USING THE SAME” (Kallyope, Inc., priority 2024, published 2026)
Like-named read-outs stand apart in the source and are kept apart here. Starred links: 1 amine or outer side, 2 acyl side, 3 side chain; linkers in the order of their positions; H or OH if unused. Non-standard residues stand in square brackets, D forms with d. Residues, ends and D or L forms follow the SMILES beside them. *: point of attachment. Trp(7-Me) = Cc1cccc2c(C[C@H](N)C(=O)O)c[nH]c12; C20 diacid = O=C(O)CCCCCCCCCCCCCCCCCCC(=O)*; d(γGlu) = O=C(O)[C@@H](CCC(=O)[*:2])N[*:1]; C18 diacid = O=C(O)CCCCCCCCCCCCCCCCC(=O)*; γGlu = O=C(O)[C@H](CCC(=O)[*:2])N[*:1]; NMeH = CN[C@@H](Cc1c[nH]cn1)C(=O)O; Nle = CCCC[C@H](N)C(=O)O; β3hA = C[C@H](N)CC(=O)O; AEEA = NCCOCCOCC(=O)O; βAla = NCCC(=O)O

Key:
human GRP receptors = target: T1, human GRP receptors (Homo sapiens, UniProt P30550); experiment: IP1 GRPR activity: HTRF IP1-Gq assay in U2OS cells stably expressing human GRP receptors; format: cell-based; details: 90 minutes incubation, read-out: hIP1 GRPR EC50
T1 construct: host or cells: U2OS
Method: U2OS cells stably expressing human GRP receptors (DiscoverX, #93-0229C3) were cultured according to manufacturer's instructions. Cells were cultured to […], then collected using AccuTase (Innovative Cell Technologies, #AT104). Cells were washed and plated on a poly-D-lysine-coated 384-well plate (ThermoFisher, #A3890401) at a density of 2,500 cells/well in […] assay buffer (AssayComplete Cell Plating 5 Reagent, DiscoverX #93-0563R5), then incubated overnight at 37° C. and 5% C02. The following morning, a homogenous time-resolved fluorescence (HTRF) assay was performed in a 384-well plate format using the IP1-Gq assay kit (Cisbio, 62IPAPEB). Test compounds were made as a stock in DMSO, then serially diluted to generate 10-point dose response curves in IP1 stimulation buffer. Five microliters of the prepared compounds were then added to the plate containing cells and assay buffer in duplicate, and the cells were incubated at 37° C. and 5% CO2 for 90 minutes. Following compound incubation, […] of IP1 lysis/detection buffer (prepared according to manufacturer's instructions) was added to each well, and the plates were incubated at room temperature for 1 hour. HTRF signals were measured using a plate reader (ClarioSTAR), calculating the ratio between emissions at 665 nm and 620 nm (HTRF ratio). HTRF ratio for positive (Max, […]; SEQ ID NO. 45) and negative (Min, DMSO) controls were used to normalize HTRF data and generate values for % activity. EC50 and Max activity values were determined using a standard 4-parameter fit using GraphPad Prism.

[1] = Pharmacokinetics after intravenous peptide administration in mice; parameters: species or system C57BL/6 mice; details: in vivo
Method: GPR-10 and peptides were dosed IV at 2 mg/kg as a formulation of 0.4 mg/mL in […]+65% water (pH 6-7).

[2] = mouse, C57BL/6 mice, IV 2 mg/kg, formulation of 0.4 mg/mL, read-out: CL
[3] = mouse, C57BL/6 mice, IV 2 mg/kg, formulation of 0.4 mg/mL, read-out: T1/2 (converted)

T1 sequence (P30550 whole entry): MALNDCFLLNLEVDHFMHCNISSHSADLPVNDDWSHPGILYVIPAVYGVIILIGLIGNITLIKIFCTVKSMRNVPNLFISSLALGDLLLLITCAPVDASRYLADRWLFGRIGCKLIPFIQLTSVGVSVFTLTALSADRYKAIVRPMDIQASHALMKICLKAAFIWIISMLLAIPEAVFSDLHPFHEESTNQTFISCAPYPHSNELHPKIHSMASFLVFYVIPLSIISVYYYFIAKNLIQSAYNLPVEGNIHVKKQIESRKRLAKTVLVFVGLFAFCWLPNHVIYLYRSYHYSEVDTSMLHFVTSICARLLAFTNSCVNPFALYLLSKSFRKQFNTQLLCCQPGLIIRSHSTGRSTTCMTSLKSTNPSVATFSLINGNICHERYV

EC50 (human GRP receptors)	clearance [1, 2]	half-life [1, 3]	Structure (SMILES)	also measured
7.5 nM	0.12 mL/min/kg	6.6 h	CCCC[C@H](NC(=O)[C@H](CC(C)C)NC(=O)[C@H](Cc1c[nH]cn1)NC(=O)CCNC(=O)[C@@H](NC(=O)[C@H](C)NC(=O)[C@H](Cc1c[nH]c2c(C)cccc12)NC(=O)[C@H](Cc1c[nH]cn1)NC(=O)[C@H](CCCNC(=N)N)NC(=O)CNC(=O)[C@H](CCC(=O)O)NC(=O)COCCOCCNC(=O)COCCOCCNC(=O)CC[C@H](NC(=O)CC[C@H](NC(=O)CCCCCCCCCCCCCCCCCCC(=O)O)C(=O)O)C(=O)O)C(C)C)C(N)=O [Peptide 252, Eicosanedioyl-γGlu-γGlu-OEG-OEG-Glu-Gly-Arg-His-7MeTrp-Ala-Val-β-Ala-His-Leu-Nle-NH2] ({C20 diacid-γGlu-γGlu-AEEA-AEEA}-EGRH[Trp(7-Me)]AV[βAla]HL[Nle]-NH2)	
	0.09 mL/min/kg	9.4 h	CCCC[C@H](NC(=O)[C@H](CC(C)C)NC(=O)[C@H](Cc1c[nH]cn1)NC(=O)CCNC(=O)[C@@H](NC(=O)[C@H](C)NC(=O)[C@H](Cc1c[nH]c2c(C)cccc12)NC(=O)[C@H](Cc1c[nH]cn1)NC(=O)[C@H](CCC(N)=O)NC(=O)[C@H](CO)NC(=O)[C@H](CCC(=O)O)NC(=O)COCCOCCNC(=O)COCCOCCNC(=O)CC[C@H](NC(=O)CC[C@H](NC(=O)CCCCCCCCCCCCCCCCCCC(=O)O)C(=O)O)C(=O)O)C(C)C)C(N)=O [Peptide 257, Eicosanedioyl-γGlu-γGlu-OEG-OEG-Glu-Ser-Gln-His-7MeTrp-Ala-Val-β-Ala-His-Leu-Nle-NH2] ({C20 diacid-γGlu-γGlu-AEEA-AEEA}-ESQH[Trp(7-Me)]AV[βAla]HL[Nle]-NH2)	
		< 0.1 h	CCCC[C@H](NC(=O)[C@H](CC(C)C)NC(=O)[C@H](Cc1c[nH]cn1)NC(=O)[C@@H](C)NC(=O)[C@@H](NC(=O)[C@H](C)NC(=O)[C@H](Cc1c[nH]c2ccccc12)NC(=O)[C@H](Cc1c[nH]cn1)NC(=O)[C@H](CC(N)=O)NC(=O)CN)C(C)C)C(N)=O [Peptide 6, Gly-Asn-His-Trp-Ala-Val-D-Ala-His-Leu-Nle-NH2]	
	0.5 mL/min/kg	5.7 h	CCCC[C@H](NC(=O)[C@H](CC(C)C)NC(=O)[C@H](Cc1c[nH]cn1)NC(=O)[C@@H](C)NC(=O)[C@@H](NC(=O)[C@H](C)NC(=O)[C@H](Cc1c[nH]c2ccccc12)NC(=O)[C@H](Cc1c[nH]cn1)NC(=O)[C@H](CC(N)=O)NC(=O)CNC(=O)COCCOCCNC(=O)COCCOCCNC(=O)CC[C@@H](NC(=O)CCCCCCCCCCCCCCCCC(=O)O)C(=O)O)C(C)C)C(N)=O [Peptide 9, Octadecanedioyl-D-γGlu-OEG-OEG-Gly-Asn-His-Trp-Ala-Val-D-Ala-His-Leu-Nle-NH2] ({C18 diacid-d(γGlu)-AEEA-AEEA}-GNHWAV[dA]HL[Nle]-NH2)	
			CSCC[C@H](NC(=O)[C@H](CC(C)C)NC(=O)[C@H](Cc1cnc[nH]1)NC(=O)CNC(=O)[C@@H](NC(=O)[C@H](C)NC(=O)[C@H](Cc1c[nH]c2ccccc12)NC(=O)[C@H](Cc1cnc[nH]1)NC(=O)[C@H](CC(N)=O)NC(=O)CN)C(C)C)C(N)=O [GRP10, G-N-H-W-A-V-G-H-L-M-NH2, reference compound]	clearance ([1]; C57BL/6, mouse, iv, 2 mg/kg): 4540 mL/min/kg; half-life ([1]; C57BL/6, mouse, iv, 2 mg/kg): 0.3 h
	1.2 mL/min/kg	2 h	CCCCCCCCCCCCCCCC(=O)N[C@H](CCC(=O)NCCOCCOCC(=O)NCCOCCOCC(=O)NCC(=O)N[C@@H](CC(N)=O)C(=O)N[C@@H](Cc1c[nH]cn1)C(=O)N[C@@H](Cc1c[nH]c2ccccc12)C(=O)N[C@@H](C)C(=O)N[C@H](C(=O)NCC(=O)N[C@@H](Cc1c[nH]cn1)C(=O)N[C@@H](CC(C)C)C(=O)N[C@@H](CCSC)C(N)=O)C(C)C)C(=O)O [Peptide 8, Palmitoyl-D-γGlu-OEG-OEG-Gly-Asn-His-Trp-Ala-Val-Gly-His-Leu-Met-NH2]	
3.7 nM			CCCC[C@H](NC(=O)[C@H](CC(C)C)NC(=O)[C@H](Cc1c[nH]cn1)NC(=O)CCNC(=O)[C@@H](NC(=O)[C@H](C)NC(=O)[C@H](Cc1c[nH]c2c(C)cccc12)NC(=O)[C@H](Cc1c[nH]cn1)NC(=O)[C@H](CCCNC(=N)N)NC(=O)CNC(=O)[C@H](CO)NC(=O)COCCOCCNC(=O)COCCOCCNC(=O)CC[C@H](NC(=O)CC[C@H](NC(=O)CCCCCCCCCCCCCCCCCCC(=O)O)C(=O)O)C(=O)O)C(C)C)C(N)=O [Peptide 256, Eicosanedioyl-γGlu-Glu-OEG-OEG-Ser-Gly-Arg-His-7MeTrp-Ala-Val-β-Ala-His-Leu-Nle-NH2] ({C20 diacid-γGlu-γGlu-AEEA-AEEA}-SGRH[Trp(7-Me)]AV[βAla]HL[Nle]-NH2)	
> 10000 nM			CCCC[C@H](NC(=O)[C@H](CC(C)C)NC(=O)[C@H](Cc1c[nH]cn1)NC(=O)[C@@H](C)NC(=O)[C@@H](NC(=O)[C@H](C)NC(=O)[C@H](Cc1c[nH]cn1)NC(=O)[C@H](Cc1c[nH]cn1)NC(=O)[C@H](CC(N)=O)NC(=O)CNC(=O)COCCOCCNC(=O)COCCOCCNC(=O)CC[C@@H](NC(=O)CCCCCCCCCCCCCCCCC(=O)O)C(=O)O)C(C)C)C(N)=O [Peptide 68, Octadecanedioyl-D-γGlu-OEG-OEG-Gly-Asn-His-His-Ala-Val-D-Ala-His-Leu-Nle-NH2] ({C18 diacid-d(γGlu)-AEEA-AEEA}-GNHHAV[dA]HL[Nle]-NH2)	
3.8 nM			CCCC[C@H](NC(=O)[C@H](CC(C)C)NC(=O)[C@H](Cc1cnc[nH]1)N(C)C(=O)C[C@H](C)NC(=O)[C@@H](NC(=O)[C@H](C)NC(=O)[C@H](Cc1c[nH]c2c(C)cccc12)NC(=O)[C@H](Cc1c[nH]cn1)NC(=O)[C@H](CCC(N)=O)NC(=O)CNC(=O)COCCOCCNC(=O)COCCOCCNC(=O)CC[C@H](NC(=O)CC[C@H](NC(=O)CCCCCCCCCCCCCCCCCCC(=O)O)C(=O)O)C(=O)O)C(C)C)C(N)=O [Peptide 270, Eicosanedioyl-γGlu-γGlu-OEG-OEG-Gly-Gln-His-7MeTrp-Ala-Val-BABA-NMeHis-Leu-Nle-NH2] ({C20 diacid-γGlu-γGlu-AEEA-AEEA}-GQH[Trp(7-Me)]AV[β3hA][NMeH]L[Nle]-NH2)	
> 10000 nM			CC(C)C[C@H](NC(=O)[C@H](Cc1c[nH]cn1)NC(=O)[C@@H](C)NC(=O)[C@@H](NC(=O)[C@H](C)NC(=O)[C@H](Cc1c[nH]c2ccccc12)NC(=O)[C@H](Cc1c[nH]cn1)NC(=O)[C@H](CC(N)=O)NC(=O)CNC(=O)COCCOCCNC(=O)COCCOCCNC(=O)CC[C@@H](NC(=O)CCCCCCCCCCCCCCCCC(=O)O)C(=O)O)C(C)C)C(=O)N[C@@H](CCCNC(=N)N)C(N)=O [Peptide 69, Octadecanedioyl-D-γGlu-OEG-OEG-Gly-Asn-His-Trp-Ala-Val-D-Ala-His-Leu-Arg-NH2] ({C18 diacid-d(γGlu)-AEEA-AEEA}-GNHWAV[dA]HLR-NH2)	
> 10000 nM			CCCC[C@H](NC(=O)[C@H](CC(C)C)NC(=O)[C@H](Cc1c[nH]cn1)NC(=O)[C@@H](C)NC(=O)[C@@H](NC(=O)[C@H](C)NC(=O)[C@H](Cc1c[nH]cn1)NC(=O)[C@H](Cc1c[nH]cn1)NC(=O)[C@H](CC(N)=O)NC(=O)CNC(=O)COCCOCCNC(=O)COCCOCCNC(=O)CC[C@H](NC(=O)CCCCCCCCCCCCCCCCC(=O)O)C(=O)O)C(C)C)C(N)=O [Peptide 107, Octadecanedioyl-γGlu-OEG-OEG-Gly-Asn-His-His-Ala-Val-D-Ala-His-Leu-Nle-NH2] ({C18 diacid-γGlu-AEEA-AEEA}-GNHHAV[dA]HL[Nle]-NH2)	
6.9 nM	0.09 mL/min/kg	9.4 h	CCCC[C@H](NC(=O)[C@H](CC(C)C)NC(=O)[C@H](Cc1c[nH]cn1)NC(=O)CCNC(=O)[C@@H](NC(=O)[C@H](C)NC(=O)[C@H](Cc1c[nH]c2c(C)cccc12)NC(=O)[C@H](Cc1c[nH]cn1)NC(=O)[C@H](CCC(=O)O)NC(=O)CNC(=O)[C@H](CO)NC(=O)COCCOCCNC(=O)COCCOCCNC(=O)CC[C@H](NC(=O)CC[C@H](NC(=O)CCCCCCCCCCCCCCCCCCC(=O)O)C(=O)O)C(=O)O)C(C)C)C(N)=O [Peptide 255, Eicosanedioyl-γGlu-Glu-OEG-OEG-Ser-Gly-Glu-His-7MeTrp-Ala-Val-β-Ala-His-Leu-Nle-NH2] ({C20 diacid-γGlu-γGlu-AEEA-AEEA}-SGEH[Trp(7-Me)]AV[βAla]HL[Nle]-NH2)	
